ChEMBL document CHEMBL1201862, “PubChem BioAssay data set” (2004)
Activity calls are given as the source filed them.

How the values were obtained:
[1] = molecular target: T1, Sphingosine 1-phosphate receptor 4 (Homo sapiens, UniProt O95977); assay: Fluorescence dose response cell-based high throughput screening assay for agonists of the Sphingosine 1-Phosphate Receptor 4 (S1P4). [Related pubchem assays: 1509 (Primary screen.), 1523 (Confirmation screen in triplicates.)]; format: functional
T1 sequence (O95977 whole entry): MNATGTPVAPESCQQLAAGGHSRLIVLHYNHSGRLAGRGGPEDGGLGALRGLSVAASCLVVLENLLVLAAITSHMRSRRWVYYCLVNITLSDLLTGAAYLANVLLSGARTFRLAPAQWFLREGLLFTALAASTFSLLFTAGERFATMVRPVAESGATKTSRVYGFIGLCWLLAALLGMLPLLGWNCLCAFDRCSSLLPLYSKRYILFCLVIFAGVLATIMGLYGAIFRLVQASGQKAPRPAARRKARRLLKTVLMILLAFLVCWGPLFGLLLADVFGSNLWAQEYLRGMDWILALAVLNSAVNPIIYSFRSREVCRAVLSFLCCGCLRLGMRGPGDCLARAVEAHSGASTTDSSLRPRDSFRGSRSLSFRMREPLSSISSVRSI

[2] = molecular target: Sphingosine 1-phosphate receptor 1 (Homo sapiens, UniProt P21453); assay: Fluorescence-based counterscreen assay for S1P4 agonists: Cell-based dose response high throughput screening assay to identify agonists of the Sphingosine 1-Phosphate Receptor 1 (S1P1). [Related pubchem assays (depositor defined):AID1509, AID1523, AID1801, AID463107, AID463118, AID463119, AID463122, AID463123, AID463129, AID463225, AID504400, AID504460]; format: functional
Sphingosine 1-phosphate receptor 1, sequence (P21453 whole entry): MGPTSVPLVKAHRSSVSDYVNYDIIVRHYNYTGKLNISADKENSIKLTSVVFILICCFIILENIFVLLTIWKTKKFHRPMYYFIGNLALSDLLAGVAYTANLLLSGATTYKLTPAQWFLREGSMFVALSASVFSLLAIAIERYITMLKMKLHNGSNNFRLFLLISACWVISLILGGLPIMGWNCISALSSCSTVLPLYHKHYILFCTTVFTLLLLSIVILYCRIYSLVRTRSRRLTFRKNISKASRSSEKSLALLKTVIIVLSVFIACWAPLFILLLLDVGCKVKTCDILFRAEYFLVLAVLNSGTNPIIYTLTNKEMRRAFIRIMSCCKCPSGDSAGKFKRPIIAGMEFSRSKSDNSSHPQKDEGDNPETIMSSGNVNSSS

[3] = molecular target: UDP-galactopyranose mutase (Mycobacterium tuberculosis, UniProt P9WIQ1); assay: Inhibitors of Mycobacterium tuberculosis UDP-galactopyranose mutase (UGM) enzyme Measured in Biochemical System Using Plate Reader - 2105-02_Inhibitor_Dose_CherryPick_Activity. [Related pubchem assays (depositor defined):AID504439]
HeLa = assay: HeLa cell cytotoxicity, dose response, cytotoxicity control, 24 h, cherry-picked samples (AID 504726); format: functional, cell-based; details: Homo sapiens;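 also: potency for cytotoxicity as loss of luminescence signal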
Insulin-degrading enzyme [4] = molecular target: T2, Insulin-degrading enzyme (Homo sapiens, UniProt P14735); assay: activators of endogenous IDE in HEK cells, dose response, cell-based, fluorescence polarization (AID 588439); format: functional
T2 sequence (P14735 whole entry): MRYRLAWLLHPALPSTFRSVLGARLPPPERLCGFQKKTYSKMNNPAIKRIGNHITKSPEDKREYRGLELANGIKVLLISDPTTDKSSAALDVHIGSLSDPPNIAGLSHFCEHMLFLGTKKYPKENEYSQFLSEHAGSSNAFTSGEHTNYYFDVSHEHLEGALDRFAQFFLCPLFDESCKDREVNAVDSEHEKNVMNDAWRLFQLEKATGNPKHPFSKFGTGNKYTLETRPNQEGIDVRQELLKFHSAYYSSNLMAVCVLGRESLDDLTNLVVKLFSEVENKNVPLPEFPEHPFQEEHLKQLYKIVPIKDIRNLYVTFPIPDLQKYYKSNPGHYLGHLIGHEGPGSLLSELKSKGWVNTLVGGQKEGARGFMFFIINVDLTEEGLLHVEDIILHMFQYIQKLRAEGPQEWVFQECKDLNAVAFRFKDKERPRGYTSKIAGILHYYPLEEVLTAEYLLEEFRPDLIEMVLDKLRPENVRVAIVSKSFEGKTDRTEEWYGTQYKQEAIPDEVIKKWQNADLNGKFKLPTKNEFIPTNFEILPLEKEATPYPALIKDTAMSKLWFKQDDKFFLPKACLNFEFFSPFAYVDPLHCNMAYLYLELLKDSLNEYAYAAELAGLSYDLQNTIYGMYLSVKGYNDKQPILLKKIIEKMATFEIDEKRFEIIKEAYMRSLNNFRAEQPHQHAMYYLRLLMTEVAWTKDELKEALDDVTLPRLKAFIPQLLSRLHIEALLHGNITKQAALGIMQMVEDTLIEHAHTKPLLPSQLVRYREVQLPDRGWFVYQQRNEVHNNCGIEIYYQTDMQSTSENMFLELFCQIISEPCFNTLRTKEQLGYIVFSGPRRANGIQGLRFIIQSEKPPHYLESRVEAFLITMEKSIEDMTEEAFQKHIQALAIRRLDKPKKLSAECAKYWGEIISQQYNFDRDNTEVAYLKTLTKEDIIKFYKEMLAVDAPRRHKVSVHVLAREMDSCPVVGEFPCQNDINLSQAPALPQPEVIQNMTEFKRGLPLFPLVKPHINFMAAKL

Insulin-degrading enzyme [5] = molecular target: T2, Insulin-degrading enzyme; assay: activators of recombinant IDE enzyme, dose response, counter-screen for IDE activator project, biochemical, fluorescence polarization (AID 588681)
HEK293 [6] = assay: HEK cell cytotoxicity by LDH release, dose response, cytotoxicity control for IDE activator project, fluorescence, HEK cells (AID 588440); format: functional, cell-based; details: Homo sapiens;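 also: cytotoxicity by LDH release measuring loss of membrane integrity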
HEK293 [7] = assay: optical interference in Abeta FP readout, dose response, artefact control for IDE activator project, biochemical, fluorescence polarization (AID 588442); format: functional, cell-based; details: Homo sapiens
A-375 [8] = assay: MITF: Counter assay: A375 proliferation Measured in Cell-Based System Using Plate Reader - 2084-03_Inhibitor_Dose_DryPowder_Activity. [Related pubchem assays (depositor defined):AID488944]; format: functional; details: Homo sapiens
A-375 [9] = assay: A375 melanoma cell viability reduction, dose response, counter-screen for MITF modulator project, cherry-pick samples, set 2 (AID 540335); format: functional, cell-based; details: Homo sapiens
Cytochrome P450 2C9 = Cytochrome P450 2C9 (Homo sapiens, UniProt P11712)
Cytochrome P450 2C9, sequence (P11712 whole entry): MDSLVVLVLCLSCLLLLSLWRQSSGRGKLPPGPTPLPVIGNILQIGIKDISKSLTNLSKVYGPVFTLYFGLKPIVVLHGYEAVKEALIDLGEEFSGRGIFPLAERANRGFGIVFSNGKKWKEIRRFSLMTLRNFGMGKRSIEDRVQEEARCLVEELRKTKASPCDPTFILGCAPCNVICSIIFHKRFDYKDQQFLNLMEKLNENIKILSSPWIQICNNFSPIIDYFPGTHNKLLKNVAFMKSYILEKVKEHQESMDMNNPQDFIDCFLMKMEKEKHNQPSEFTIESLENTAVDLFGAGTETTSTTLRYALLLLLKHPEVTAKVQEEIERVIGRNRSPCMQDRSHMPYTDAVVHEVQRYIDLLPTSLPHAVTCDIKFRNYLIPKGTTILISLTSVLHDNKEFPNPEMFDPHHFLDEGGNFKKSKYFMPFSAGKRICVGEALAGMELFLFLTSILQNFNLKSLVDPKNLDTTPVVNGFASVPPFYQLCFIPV

Cytochrome P450 2C19 = Cytochrome P450 2C19 (Homo sapiens, UniProt P33261); assay: Cytochrome panel assay with activity outcomes. Panel member name: p450-cyp2c19 Compounds with AC50 equal or less than 10 uM are considered active; format: functional
Cytochrome P450 1A2 = molecular target: T3, Cytochrome P450 1A2 (Homo sapiens, UniProt P05177);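 also: PubChem cytochrome P450 panel assay, CYP1A2 panel member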
T3 sequence (P05177 whole entry): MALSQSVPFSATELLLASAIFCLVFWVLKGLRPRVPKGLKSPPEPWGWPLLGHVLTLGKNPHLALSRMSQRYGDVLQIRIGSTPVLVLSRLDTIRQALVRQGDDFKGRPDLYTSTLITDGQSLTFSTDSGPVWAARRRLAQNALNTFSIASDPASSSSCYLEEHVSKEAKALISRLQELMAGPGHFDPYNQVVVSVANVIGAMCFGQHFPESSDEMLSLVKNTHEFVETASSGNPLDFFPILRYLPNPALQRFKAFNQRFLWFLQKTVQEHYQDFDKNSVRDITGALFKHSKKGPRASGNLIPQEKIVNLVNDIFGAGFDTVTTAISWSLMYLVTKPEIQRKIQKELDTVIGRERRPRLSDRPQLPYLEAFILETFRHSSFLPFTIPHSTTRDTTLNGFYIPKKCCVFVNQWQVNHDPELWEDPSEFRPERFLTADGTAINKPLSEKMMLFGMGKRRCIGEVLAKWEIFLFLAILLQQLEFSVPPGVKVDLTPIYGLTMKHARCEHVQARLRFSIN

Cytochrome P450 2D6 = Cytochrome P450 2D6 (Homo sapiens, UniProt P10635);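 also: CYP2D6 member of a cytochrome P450 panel assay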
Cytochrome P450 2D6, sequence (P10635 whole entry): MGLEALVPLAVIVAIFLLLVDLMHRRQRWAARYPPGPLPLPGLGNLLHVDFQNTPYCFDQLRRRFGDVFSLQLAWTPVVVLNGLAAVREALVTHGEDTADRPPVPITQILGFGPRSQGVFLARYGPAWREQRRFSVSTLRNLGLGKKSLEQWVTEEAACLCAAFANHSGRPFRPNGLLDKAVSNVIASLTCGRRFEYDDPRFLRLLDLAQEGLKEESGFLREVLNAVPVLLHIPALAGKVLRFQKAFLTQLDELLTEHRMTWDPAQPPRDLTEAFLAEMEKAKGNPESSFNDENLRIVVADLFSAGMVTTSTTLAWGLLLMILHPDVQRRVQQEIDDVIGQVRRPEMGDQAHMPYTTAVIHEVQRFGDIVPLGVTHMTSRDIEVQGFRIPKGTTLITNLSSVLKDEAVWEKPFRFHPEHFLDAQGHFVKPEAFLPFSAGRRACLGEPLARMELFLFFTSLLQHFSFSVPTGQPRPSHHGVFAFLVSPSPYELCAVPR

[10] = molecular target: T4, Heat shock factor protein 1 (Mus musculus, UniProt P38532); assay: inhibition of MG132-induced HSE-luciferase signal, confirmation, cell-based, NIH3T3, luminescence, dose retest (AID 2382); format: functional;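 also: NIH3T3 fibroblasts with HSF1-driven luciferase reporter stressed by proteasome inhibitor MG132; luminescence from HSF1-driven luciferase expression after 8 hours of MG132 stress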
T4 sequence (P38532 whole entry): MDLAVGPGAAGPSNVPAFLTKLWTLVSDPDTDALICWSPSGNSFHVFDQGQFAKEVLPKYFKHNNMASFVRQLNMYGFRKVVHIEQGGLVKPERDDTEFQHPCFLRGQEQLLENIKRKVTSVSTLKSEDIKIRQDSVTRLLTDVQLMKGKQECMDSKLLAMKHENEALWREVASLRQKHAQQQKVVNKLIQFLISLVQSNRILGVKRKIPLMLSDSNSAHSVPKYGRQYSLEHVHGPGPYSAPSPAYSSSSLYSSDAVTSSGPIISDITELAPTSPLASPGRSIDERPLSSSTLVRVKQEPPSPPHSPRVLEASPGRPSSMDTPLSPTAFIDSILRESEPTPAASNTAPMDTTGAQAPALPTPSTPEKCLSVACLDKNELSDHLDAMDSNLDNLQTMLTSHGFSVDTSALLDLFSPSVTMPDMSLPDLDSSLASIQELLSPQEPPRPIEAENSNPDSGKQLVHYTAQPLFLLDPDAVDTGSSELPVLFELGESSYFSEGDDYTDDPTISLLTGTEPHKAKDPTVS

Tumor necrosis factor = Tumor necrosis factor (Homo sapiens, UniProt P01375); assay: TNFa-triggered NF-kB activation inhibitors, SAR follow-up, cell-based, revised (AID 2337); format: functional
[11] = molecular target: Nucleotide-binding oligomerization domain-containing protein 1 (Homo sapiens, UniProt Q9Y239); assay: NOD1 signaling inhibitors, SAR follow-up, revised (AID 2333); format: functional
Nucleotide-binding oligomerization domain-containing protein 1, sequence (Q9Y239 whole entry, the tested form may be a part): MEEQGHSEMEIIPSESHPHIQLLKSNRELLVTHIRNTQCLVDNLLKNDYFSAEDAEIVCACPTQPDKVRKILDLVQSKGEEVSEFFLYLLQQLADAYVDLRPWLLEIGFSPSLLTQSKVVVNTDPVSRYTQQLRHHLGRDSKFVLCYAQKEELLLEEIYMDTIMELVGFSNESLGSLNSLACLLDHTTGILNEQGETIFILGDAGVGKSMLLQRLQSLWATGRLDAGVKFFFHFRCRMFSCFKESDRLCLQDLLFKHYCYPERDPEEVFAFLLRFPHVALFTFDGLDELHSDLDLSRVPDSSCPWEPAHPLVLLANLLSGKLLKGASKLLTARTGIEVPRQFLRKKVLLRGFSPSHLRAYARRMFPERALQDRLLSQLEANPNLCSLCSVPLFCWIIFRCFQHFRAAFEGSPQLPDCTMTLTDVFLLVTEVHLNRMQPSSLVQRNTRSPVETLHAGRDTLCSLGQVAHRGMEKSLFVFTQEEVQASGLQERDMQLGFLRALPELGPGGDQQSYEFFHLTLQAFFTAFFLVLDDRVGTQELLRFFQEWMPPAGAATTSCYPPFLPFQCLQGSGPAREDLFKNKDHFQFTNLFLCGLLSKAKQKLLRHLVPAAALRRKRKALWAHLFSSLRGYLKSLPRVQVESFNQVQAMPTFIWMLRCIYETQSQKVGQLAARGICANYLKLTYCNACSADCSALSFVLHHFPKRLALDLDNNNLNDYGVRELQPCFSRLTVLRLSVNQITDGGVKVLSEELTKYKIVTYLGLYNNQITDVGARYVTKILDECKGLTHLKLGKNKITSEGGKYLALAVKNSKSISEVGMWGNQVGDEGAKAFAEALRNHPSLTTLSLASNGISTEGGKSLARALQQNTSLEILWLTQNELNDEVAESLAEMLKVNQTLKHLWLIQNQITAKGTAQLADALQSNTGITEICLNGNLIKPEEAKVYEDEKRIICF

HEK293 [12] = assay: cells; details: Homo sapiens
[13] = molecular target: Nucleotide-binding oligomerization domain-containing protein 2 (Homo sapiens, UniProt Q9HC29); assay: PubChem AID 2334; format: functional
Nucleotide-binding oligomerization domain-containing protein 2, sequence (Q9HC29 whole entry, the tested form may be a part): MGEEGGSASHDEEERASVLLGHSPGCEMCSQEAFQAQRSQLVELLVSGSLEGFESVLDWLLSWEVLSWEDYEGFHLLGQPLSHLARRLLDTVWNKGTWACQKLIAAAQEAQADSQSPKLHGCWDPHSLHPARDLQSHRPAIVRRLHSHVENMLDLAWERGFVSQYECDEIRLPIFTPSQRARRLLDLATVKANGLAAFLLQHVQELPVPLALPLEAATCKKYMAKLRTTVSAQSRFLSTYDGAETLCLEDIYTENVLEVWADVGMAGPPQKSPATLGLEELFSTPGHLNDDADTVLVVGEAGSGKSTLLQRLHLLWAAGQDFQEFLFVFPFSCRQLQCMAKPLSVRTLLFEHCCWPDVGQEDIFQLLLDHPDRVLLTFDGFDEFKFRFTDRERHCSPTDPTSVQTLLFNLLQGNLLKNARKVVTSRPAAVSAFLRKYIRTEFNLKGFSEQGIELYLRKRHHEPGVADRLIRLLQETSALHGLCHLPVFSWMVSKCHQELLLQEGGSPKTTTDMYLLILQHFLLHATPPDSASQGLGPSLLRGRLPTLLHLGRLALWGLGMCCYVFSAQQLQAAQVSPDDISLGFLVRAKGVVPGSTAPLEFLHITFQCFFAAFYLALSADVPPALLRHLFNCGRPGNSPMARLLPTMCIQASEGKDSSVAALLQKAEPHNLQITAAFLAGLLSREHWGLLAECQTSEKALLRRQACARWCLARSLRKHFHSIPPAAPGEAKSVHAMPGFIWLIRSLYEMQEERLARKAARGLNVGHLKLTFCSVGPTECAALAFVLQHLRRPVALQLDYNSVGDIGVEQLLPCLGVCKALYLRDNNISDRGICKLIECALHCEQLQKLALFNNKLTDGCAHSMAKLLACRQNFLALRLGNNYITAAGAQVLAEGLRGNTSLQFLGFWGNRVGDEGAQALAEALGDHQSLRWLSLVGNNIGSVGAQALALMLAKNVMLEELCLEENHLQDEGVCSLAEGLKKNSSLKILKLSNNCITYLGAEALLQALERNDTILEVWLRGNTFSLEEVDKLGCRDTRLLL

[14] = molecular target: Lysine-specific demethylase 4C (Homo sapiens, UniProt Q9H3R0); assay: GASC-1 (JMJD2C) histone demethylase inhibitors, dose response, biochemical, DELFIA europium, cherry-picked samples (AID 488835); format: functional
Lysine-specific demethylase 4C, sequence (Q9H3R0 whole entry): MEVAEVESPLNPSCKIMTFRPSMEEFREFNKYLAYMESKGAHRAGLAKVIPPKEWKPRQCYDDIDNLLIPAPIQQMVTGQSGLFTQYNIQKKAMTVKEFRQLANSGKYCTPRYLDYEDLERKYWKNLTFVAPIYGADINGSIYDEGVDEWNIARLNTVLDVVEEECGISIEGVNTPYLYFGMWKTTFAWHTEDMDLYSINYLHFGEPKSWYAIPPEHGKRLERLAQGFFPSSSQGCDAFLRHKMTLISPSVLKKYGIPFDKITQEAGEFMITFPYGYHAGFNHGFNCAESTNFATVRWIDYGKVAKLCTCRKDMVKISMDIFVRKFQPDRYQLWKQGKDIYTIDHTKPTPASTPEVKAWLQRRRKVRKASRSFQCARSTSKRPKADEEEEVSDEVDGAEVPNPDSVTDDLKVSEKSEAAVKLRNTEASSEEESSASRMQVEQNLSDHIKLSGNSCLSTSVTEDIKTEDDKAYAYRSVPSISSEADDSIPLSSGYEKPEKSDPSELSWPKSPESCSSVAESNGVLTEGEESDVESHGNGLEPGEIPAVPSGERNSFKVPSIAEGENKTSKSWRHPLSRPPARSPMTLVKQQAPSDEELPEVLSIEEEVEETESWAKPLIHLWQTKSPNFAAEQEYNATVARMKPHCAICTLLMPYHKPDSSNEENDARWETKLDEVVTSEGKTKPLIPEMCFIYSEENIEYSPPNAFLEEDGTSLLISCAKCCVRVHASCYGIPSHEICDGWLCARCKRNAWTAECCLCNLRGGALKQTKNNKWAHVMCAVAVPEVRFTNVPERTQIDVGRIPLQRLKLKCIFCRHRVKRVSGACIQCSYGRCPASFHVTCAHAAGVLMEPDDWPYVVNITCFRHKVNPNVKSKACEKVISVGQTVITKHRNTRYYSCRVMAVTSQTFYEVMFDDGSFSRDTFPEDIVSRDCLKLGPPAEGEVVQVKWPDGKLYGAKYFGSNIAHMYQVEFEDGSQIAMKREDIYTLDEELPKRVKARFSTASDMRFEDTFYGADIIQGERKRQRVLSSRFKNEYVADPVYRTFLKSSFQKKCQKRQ

[15] = molecular target: T5, Polyadenylate-binding protein 1 (Homo sapiens, UniProt P11940); assay: PABP1 MLLE–PAM2 interaction inhibitors, dose response, miRNA deadenylation inhibitor project, biochemical, fluorescence polarization, Cy5-PAM2 peptide, secondary (AID 602260); format: functional; details: read-out: IC50_Mean
T5 sequence (P11940 whole entry): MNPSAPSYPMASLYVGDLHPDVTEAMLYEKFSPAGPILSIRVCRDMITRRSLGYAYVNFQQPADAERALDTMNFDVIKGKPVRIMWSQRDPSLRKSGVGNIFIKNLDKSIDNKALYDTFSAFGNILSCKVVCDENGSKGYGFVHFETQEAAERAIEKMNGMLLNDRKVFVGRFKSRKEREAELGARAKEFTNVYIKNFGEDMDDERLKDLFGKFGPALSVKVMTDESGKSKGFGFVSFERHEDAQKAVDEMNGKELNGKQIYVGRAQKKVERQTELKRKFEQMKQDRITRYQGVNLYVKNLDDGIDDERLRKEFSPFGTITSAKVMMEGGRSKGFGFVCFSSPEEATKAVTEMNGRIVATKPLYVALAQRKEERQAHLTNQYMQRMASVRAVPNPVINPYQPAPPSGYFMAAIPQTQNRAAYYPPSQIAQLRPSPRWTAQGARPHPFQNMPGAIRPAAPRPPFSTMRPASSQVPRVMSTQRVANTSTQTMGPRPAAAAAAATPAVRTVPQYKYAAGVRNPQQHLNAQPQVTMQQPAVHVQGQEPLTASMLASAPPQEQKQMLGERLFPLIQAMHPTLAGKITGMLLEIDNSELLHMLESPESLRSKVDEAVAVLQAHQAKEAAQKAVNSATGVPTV

[16] = molecular target: T5, Polyadenylate-binding protein 1; assay: PABP1 MLLE–PAM2 binding inhibitor potency, dose response, biochemical, fluorescence polarization, FITC-PAM2 peptide (AID 602259); format: functional; details: read-out: IC50_Mean

SMILES: CNC(=O)c1[nH]cnc1C(=O)N[C@@H](Cc1ccccc1)C(=O)OCc1ccccc1
- EC50 [1]: > 16.6 µM (not active)
- EC50 [2]: 3.13 µM (active)

SMILES: COc1ccc(N=Nc2nc3ccc(Br)cc3n2C)cc1
- AC50 [3]: 145 µM (active)
- AC50 (HeLa): 98.3 µM (active)
- EC50 (Insulin-degrading enzyme [4]): > 54.7 µM (inactive)
- EC50 (Insulin-degrading enzyme [5]): > 54.7 µM (inactive)
- IC50 (HEK293 [6]): > 89.2 µM (inactive)
- EC50 (HEK293 [7]): > 54.7 µM (inactive)

SMILES: O=C(Nc1cc2c(cc1Cl)OCCO2)c1ccco1
- AC50 (A-375 [8]): > 11 µM (active)
- AC50 (A-375 [9]): > 11 µM (active)

SMILES: CCCSc1ccc2nc(NC(=O)OC)[nH]c2c1 [ALBENDAZOLE]
- AC50 (Cytochrome P450 2C9): inactive
- AC50 (Cytochrome P450 2C19): inactive
- AC50 (Cytochrome P450 1A2): 0.398 µM (active)
- AC50 (Cytochrome P450 2D6): inactive

SMILES: C/N=C1/S/C(=C\c2cc(C)n(-c3ccccc3F)c2C)C(=O)N1C
- EC50 [1]: 0.844 µM (active)
- EC50 [10]: < 0.16 µM (active)
- EC50 [2]: 1.18 µM (active)

SMILES: O=C(Nc1ccc(CN2CCc3ccccc3C2)cc1)c1ccc(Cl)cc1
- IC50 (Tumor necrosis factor): > 20 µM (inactive)
- IC50 [11]: > 20 µM (inactive)
- IC50 (HEK293 [12]): > 20 µM (inactive)
- IC50 [13]: > 20 µM (inactive)

SMILES: CCS(=O)(=O)N1CCCC(C(=O)NCCCOC(C)C)C1 (stereo not given)
- AC50 (Cytochrome P450 2D6): inconclusive

SMILES: O=C(CSc1nc(O)c(Cc2ccccc2)c(=O)[nH]1)c1ccccc1
- AC50 [14]: 16.9 µM (active)
- IC50 [15]: > 66 µM (inactive)
- IC50 [16]: 52.5 µM (inactive)
